Test results published in patent US12303483B2, “Lipase degradation resistant surfactants for use in large molecule therapeutic formulations” (Janssen Biotech, Inc., priority 2018, dated 2025).

Tests used:
Format in all cases: physicochemical
[1] = test system: mAbs A, B and C (50 mg/mL formulations); experiment: SEC percent monomer of mAb formulations with surfactant after shaking or thermal stress (Example 1); details: 0.01% (w/v) surfactant; 3-month storage at 25° C. followed by shaking stress; compared with polysorbate (PS20 and PS80) formulations; Student's t-test p<0.01
Procedure: (§1) Size Exclusion Chromatography (SEC). The soluble aggregation quality attribute of the investigated formulations was evaluated using size exclusion ultra performance liquid chromatography (SE-UPLC). To prepare samples for analysis, collected formulations from each condition (time zero (T0) control, shaking stress, and thermal stress followed by shaking stress) were diluted with formulation buffer of each respective mAb from 50 mg/mL to 2 mg/mL. SEC runs were conducted with a 5 μL injection of sample into an Acquity UPLC 200 Å, 1.7 μm column using a 0.2 M sodium phosphate mobile phase. Eluting peaks were integrated to determine monomer content based on percent area of the main peak relative to sum of all peak areas.
To assess the protective effects of different surfactants in mAb formulations, polysorbate and PFA was spiked into formulations for three different mAbs. mAbs A and B are bispecific antibodies, and mAb C is an IgG4 monoclonal antibody. The formulations for mAbs A and B comprised 10 mM histidine, 8.5% (w/v) sucrose, at pH 5.7. The mAb C formulation consisted of 10 mM sodium phosphate, 8.5% (w/v) sucrose, 10 ppm EDTA, at pH 7.1. […] Each formulation condition was evaluated with vials in triplicate. The impact of the surfactant type and concentration was assessed using size exclusion chromatography (SEC).

[2] = test system: lipases immobilized on beads; experiment: Surfactant stock solutions exposed to lipases immobilized on beads, surfactant quantitation by UPLC-ELSD (Example 2); details: over the course of 18 days
Description: Materials: Surfactants investigated in this study included PFA and polysorbates. Two PFA, Brij® 35 (L23) (Product #ET47399, CAS #9002-92-0) and Brij® 98 (020) (Product #ET40118, CAS #9004-98-2), were obtained from Croda International PLC (East Yorkshire, UK). Polysorbate 20 (Product #4116-04, CAS #9005-64-5) and polysorbate 80 (Product #4117-03, CAS #9005-65-6) were obtained from JT Baker (Center Valley, Pennsylvania). Lipase immobilized on polystyrene beads at 2.0 U/mg (Product Number 73940) was obtained from Fluka (Denmark). All monoclonal antibodies (mAbs) were produced or acquired by Janssen Supply Chain, LLC (Horsham, Pennsylvania) and purified in a series of chromatography and filtration steps.
Surfactant Quantitation. Surfactant quantitation of samples was performed using UPLC with evaporative light scattering detection. Duplicate 7.5 μL sample injections were injected into an OASIS MAX column (30 μm, 2.1×20 mm). The mobile phase consisted of a gradient of milliQ water and isopropanol with 2% formic acid. The integrated area for each sample's eluting peak was assessed against a surfactant standard curve created from serial dilution of each surfactant type ranging from 0.005% (w/v) to 0.08% (w/v).
Stock solutions of PFA and polysorbate surfactants were exposed to lipases immobilized on beads over a period of 18 days. Surfactant levels in the solutions were quantified periodically over the course of testing to determine the extent of lipase-mediated degradation.

IgG4 mAb C = experiment: SEC percent monomer, formulation spiked with lipase-exposed surfactant (Example 3), mAb C; details: 0.01% surfactant exposed to lipase; mAb C (FIG. 3C)
Procedure: as §1
(§2) Further studies evaluated the ability of PFA and polysorbate formulations to retain their protective effects after exposures of the surfactants to lipase. The mAb formulations were spiked with surfactants that had been exposed to lipase-beads and then subjected to shaking stress or thermal stress followed by shaking. The mAb formulations were then evaluated for soluble aggregation and particulate matter using SEC and DLS, respectively.

bispecific mAb A = experiment: SEC percent monomer, formulation spiked with lipase-exposed surfactant (Example 3), mAb A; details: mAb A (FIG. 3A)
Procedure: as §1, §2

Substance	percent monomer content (SEC) [1]	surfactant level in stock solutions exposed to lipases [2]	percent monomer content (SEC) versus control formulation without any surfactant (IgG4 mAb C)	percent monomer content (SEC) versus control formulation without any surfactant (bispecific mAb A; 0.01% surfactant exposed to lipase)	percent monomer content (SEC) versus control formulation without any surfactant (bispecific mAb A; 0.04% surfactant exposed to lipase)
polyoxyethylene (20) oleyl ether [Brij® 020]	retain higher percent monomer content	remained relatively constant	–	–	–
polyoxyethylene (23) lauryl ether [Brij® L23]	retain higher percent monomer content	remained relatively constant	–	–	–
polysorbate 20 [PS20]	–	declined significantly	lower percent monomer content	–	–
polysorbate 80 [PS80]	–	declined significantly	–	lower percent monomer content	lower percent monomer content
